Data set [1] in a line: Freeze-thaw stability in spiked pooled human plasma. It counts as physicochemical.
Data set [2] can be described thus: Autosampler stability of ready for injection samples. The data set is classed as physicochemical, human.

Molecules are shown by their SMILES.

Turning to `CCN1CCN(Cc2ccc(Nc3ncc(F)c(-c4cc(F)c5nc(C)n(C(C)C)c5c4)n3)nc2)CC1` [Abemaciclib], the “Freeze-Thaw Accuracy [%]” value in data set [1] (validation standard 2xLLOV) is given as 96.4%; in data set [1] (validation standard LLOV), 90.4%; in data set [1] (validation standard MOV), 102.7%; in data set [1] (validation standard ULOV) it was 105.3%. Further, the “Autosampler (24h, 4°C) Accuracy [%]” value in data set [2] (validation standard 2xLLOV) came to 99.5%; in data set [2] (validation standard LLOV), 89.1%; in data set [2] (validation standard MOV) it was 100.7%; in data set [2] (validation standard ULOV), 102.6%. The “Autosampler (72h, 4°C) Accuracy [%]” value in data set [2] (validation standard 2xLLOV) worked out at 95.3%; in data set [2] (validation standard LLOV), 86.1%; in data set [2] (validation standard MOV), 96.7%; in data set [2] (validation standard ULOV) it was 100.1%.

As to `CN(C)C/C=C/C(=O)Nc1cc2c(Nc3ccc(F)c(Cl)c3)ncnc2cc1O[C@H]1CCOC1` [Afatinib], the “Freeze-Thaw Accuracy [%]” value in data set [1] (validation standard 2xLLOV) amounted to 100.0%; in data set [1] (validation standard LLOV), 93.5%; in data set [1] (validation standard MOV), 96.1%; in data set [1] (validation standard ULOV), 95.0%. Moreover, the “Autosampler (24h, 4°C) Accuracy [%]” value stood at 103.2% in data set [2] (validation standard 2xLLOV), 91.7% in data set [2] (validation standard LLOV), 102.6% in data set [2] (validation standard MOV) and 98.7% in data set [2] (validation standard ULOV). Besides, the “Autosampler (72h, 4°C) Accuracy [%]” value in data set [2] (validation standard 2xLLOV) came to 99.3%; in data set [2] (validation standard LLOV), 83.0%; in data set [2] (validation standard MOV), 103.4%; in data set [2] (validation standard ULOV), 99.3%.

As to `CNC(=O)c1ccc(N2C(=S)N(c3cnc(C#N)c(C(F)(F)F)c3)C(=O)C23CCC3)cc1F` [Apalutamide], the “Freeze-Thaw Accuracy [%]” value was determined as 95.6% in data set [1] (validation standard 2xLLOV), 93.8% in data set [1] (validation standard LLOV), 94.8% in data set [1] (validation standard MOV) and 95.7% in data set [1] (validation standard ULOV). For the same compound, the “Autosampler (24h, 4°C) Accuracy [%]” value is recorded as 102.1% in data set [2] (validation standard 2xLLOV), 97.2% in data set [2] (validation standard LLOV), 106.8% in data set [2] (validation standard MOV) and 102.6% in data set [2] (validation standard ULOV). The “Autosampler (72h, 4°C) Accuracy [%]” value in data set [2] (validation standard 2xLLOV) was found to be 105.1%; in data set [2] (validation standard LLOV) it was 102.8%; in data set [2] (validation standard MOV) it was 106.0%; in data set [2] (validation standard ULOV), 106.5%.

On to `CNC(=O)c1ccccc1Sc1ccc2c(/C=C/c3ccccn3)n[nH]c2c1` [Axitinib], for which the “Freeze-Thaw Accuracy [%]” value in data set [1] (validation standard 2xLLOV) was 108.3%; in data set [1] (validation standard LLOV), 102.1%; in data set [1] (validation standard MOV), 105.4%; in data set [1] (validation standard ULOV) it was 104.0%. The “Autosampler (24h, 4°C) Accuracy [%]” value is listed as 101.2% in data set [2] (validation standard 2xLLOV), 105.9% in data set [2] (validation standard LLOV), 102.7% in data set [2] (validation standard MOV) and 100.4% in data set [2] (validation standard ULOV). Further, the “Autosampler (72h, 4°C) Accuracy [%]” value is given as 104.9% in data set [2] (validation standard 2xLLOV), 97.7% in data set [2] (validation standard LLOV), 100.0% in data set [2] (validation standard MOV) and 99.1% in data set [2] (validation standard ULOV).

For `Cn1cnc2c(F)c(Nc3ccc(Br)cc3F)c(C(=O)NOCCO)cc21` [Binimetinib], the “Freeze-Thaw Accuracy [%]” value is 92.6% in data set [1] (validation standard 2xLLOV), 93.8% in data set [1] (validation standard LLOV), 100.1% in data set [1] (validation standard MOV) and 105.2% in data set [1] (validation standard ULOV). Besides, the “Autosampler (24h, 4°C) Accuracy [%]” value is reported as 104.7% in data set [2] (validation standard 2xLLOV), 103.1% in data set [2] (validation standard LLOV), 105.0% in data set [2] (validation standard MOV) and 102.1% in data set [2] (validation standard ULOV). Also, the “Autosampler (72h, 4°C) Accuracy [%]” value in data set [2] (validation standard 2xLLOV) was found to be 101.6%; in data set [2] (validation standard LLOV) it was 98.1%; in data set [2] (validation standard MOV) it was 95.8%; in data set [2] (validation standard ULOV), 102.4%.

Turning to `COc1cc(N2CCC(N3CCN(C)CC3)CC2)ccc1Nc1ncc(Cl)c(Nc2ccccc2P(C)(C)=O)n1` [Brigatinib], the “Freeze-Thaw Accuracy [%]” value in data set [1] (validation standard 2xLLOV) is reported as 98.7%; in data set [1] (validation standard LLOV), 111.4%; in data set [1] (validation standard MOV) it was 95.5%; in data set [1] (validation standard ULOV), 97.9%. Besides, the “Autosampler (24h, 4°C) Accuracy [%]” value in data set [2] (validation standard 2xLLOV) was found to be 96.4%; in data set [2] (validation standard LLOV), 90.7%; in data set [2] (validation standard MOV), 104.4%; in data set [2] (validation standard ULOV), 96.1%. The “Autosampler (72h, 4°C) Accuracy [%]” value in data set [2] (validation standard 2xLLOV) was determined as 91.9%; in data set [2] (validation standard LLOV) it was 85.3%; in data set [2] (validation standard MOV), 95.5%; in data set [2] (validation standard ULOV) it was 96.6%.

With `COc1cc2nccc(Oc3ccc(NC(=O)C4(C(=O)Nc5ccc(F)cc5)CC4)cc3)c2cc1OC` [Cabozantinib], the “Freeze-Thaw Accuracy [%]” value in data set [1] (validation standard 2xLLOV) came to 99.6%; in data set [1] (validation standard LLOV) it was 90.2%; in data set [1] (validation standard MOV), 102.2%; in data set [1] (validation standard ULOV), 95.0%. The “Autosampler (72h, 4°C) Accuracy [%]” value in data set [2] (validation standard 2xLLOV) was 103.4%; in data set [2] (validation standard LLOV), 94.0%; in data set [2] (validation standard MOV) it was 103.5%. In addition, the “Autosampler (24h, 4°C) Accuracy [%]” value in data set [2] (validation standard LLOV) is listed as 92.0%; in data set [2] (validation standard MOV), 105.6%; in data set [2] (validation standard ULOV), 98.7%.

Source of the values: publication PMC8699473, “An Easily Expandable Multi-Drug LC-MS Assay for the Simultaneous Quantification of 57 Oral Antitumor Drugs in Human Plasma” (Cancers, 2021).
